# Values quoted from earlier work, collected in patent US20140256822A1, “TRANSMUCOSAL DRUG DELIVERY SYSTEM” (priority 2013, published 2014).
# Settings: at a pH of 6.8
structure (smiles),measurement,value
CN1CCCC1c1cccnc1 (stereo not shown) [nicotine],nicotine in the free base form,about 10%
